target: Mcl-1 protein (UniProtKB Q07820) (Homo sapiens (Human), UniProt Q07820); experiment: Inhibition of Mcl-1 by the fluorescence polarisation assay (Example A, Method A); type: binding; settings: fluorescence polarization assay
Summary of the method: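 Protein (5 nM) and fluorescein-tagged peptide tracer (1 nM) incubated with 11-point compound series for 2 h at room temperature in HEPES/NaCl/Tween 20 buffer, pH 7.4, 5% DMSO. Displacement read as decrease in polarisation; IC50 fitted by 4-parameter logistic, converted to Ki (cKi or eKi).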

Mcl-1 protein, sequence (Q07820 whole entry): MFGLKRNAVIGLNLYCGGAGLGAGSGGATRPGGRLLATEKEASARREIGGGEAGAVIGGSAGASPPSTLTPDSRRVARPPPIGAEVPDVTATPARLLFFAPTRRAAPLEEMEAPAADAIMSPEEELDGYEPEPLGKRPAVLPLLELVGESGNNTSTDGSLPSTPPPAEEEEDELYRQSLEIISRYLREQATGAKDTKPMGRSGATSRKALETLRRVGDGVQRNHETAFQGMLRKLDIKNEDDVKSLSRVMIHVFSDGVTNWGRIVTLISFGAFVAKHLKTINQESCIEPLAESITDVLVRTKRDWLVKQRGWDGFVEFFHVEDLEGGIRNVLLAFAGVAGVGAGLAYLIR

Q: How did the Ki turn out when COc1ccc(C2Cc3ccccc3[C@]23CC[C@@](Nc2cccc(Cl)c2)(C(=O)O)CC3)cc1C (single isomer, unassigned) [Example 242, (1r,4r)-4-(3-chloroanilino)-2′-(4-methoxy-3-methylphenyl)-2′,3′-dihydrospiro[cyclohexane-1,1′-indene]-4-carboxylic acid] was run?
A: Its Ki is 1210 nM.

Q: How did the Ki turn out when O=C(O)[C@]1(Nc2cccc(Cl)c2)CC[C@@]2(CC1)C(Br)=Cc1ccccc12 [Example 74, (1r,4r)-2′-bromo-4-(3-chloroanilino)spiro[cyclohexane-1,1′-indene]-4-carboxylic acid] was run?
A: The Ki was 23100 nM.

Q: Which Ki does the source give for CC[C@H](COc1ccncc1)C[C@H]1Cc2ccccc2[C@]12CC[C@@](Nc1cccc(Cl)c1)(C(=O)O)CC2 [Example 542] here?
A: The Ki was 187 nM.

Q: With O=C(O)[C@]1(Nc2cccc(Cl)c2)CC[C@@]2(CC1)c1ccccc1C[C@H]2c1ccc(-c2ccccc2)o1 [Example 356, (1r,2′R,4R)-4-(3-chloroanilino)-2′-(5-phenylfuran-2-yl)-2′,3′-dihydrospiro[cyclohexane-1,1′-indene]-4-carboxylic acid] as the compound, how does the Ki read?
A: The Ki was 476 nM.

Q: With O=C(O)C1(Nc2cccc(Cl)c2)CCC2(C=Cc3cccnc32)CC1 (single isomer, unassigned) [Example 72, 4-(3-chloroanilino)spiro[cyclohexane-1,7′-cyclopenta[b]pyridine]-4-carboxylic acid] as the compound, how does the Ki read?
A: Its Ki is 191000 nM.

Q: For COc1cccc(C)c1C1=Cc2ccccc2[C@]12CC[C@@](Nc1cccc(Cl)c1)(C(=O)O)CC2 [Example 248, (1s,4s)-4-(3-chloroanilino)-2′-(2-methoxy-6-methylphenyl)spiro[cyclohexane-1,1′-indene]-4-carboxylic acid], which Ki is on record?
A: Its Ki is 28200 nM.

Q: With O=C(O)[C@]1(Nc2cccc(Br)c2)CC[C@@]2(CCc3ccc(O)cc32)CC1 [Example 63, (1r,4s)-4-(3-bromoanilino)-6′-hydroxy-2′,3′-dihydrospiro[cyclohexane-1,1′-indene]-4-carboxylic acid] as the compound, how does the Ki read?
A: The Ki was 240 nM.

Q: With Cc1cnccc1OCCCN1Cc2ccccc2[C@]12CC[C@@](Nc1cccc(Cl)c1)(C(=O)O)CC2 [Example 37, (1s,4s)-4-(3-chloroanilino)-2′-{3-[(3-methylpyridin-4-yl)oxy]propyl}-2′,3′-dihydrospiro[cyclohexane-1,1′-isoindole]-4-carboxylic acid] as the compound, how does the Ki read?
A: The Ki was 295 nM.

Q: How did the Ki turn out when O=C(O)[C@]1(Nc2cccc(Cl)c2)CC[C@@]2(CC1)c1ccccc1CC2[C@H]1C[C@@H]1COc1ccccc1 (single isomer, unassigned) [Example 112, (1r,4r)-4-(3-chloroanilino)-2′-[(1R*,2S*)-2-(phenoxymethyl)cyclopropyl]-2′,3′-dihydrospiro[cyclohexane-1,1′-indene]-4-carboxylic acid] was run?
A: Its Ki is 1620 nM.

Q: How did the Ki turn out when O=C(O)[C@]1(Nc2cccc(Cl)c2)CC[C@]2(CC1)C(c1ccc(OCc3ccccc3)cc1)=Cc1ccccc12 [Example 309, (1s,4s)-2′-[4-(benzyloxy)phenyl]-4-(3-chloroanilino)spiro[cyclohexane-1,1′-indene]-4-carboxylic acid] was run?
A: Its Ki is 732 nM.

Q: With Nc1cc(Cl)c(OCCCC2Cc3ccccc3[C@]23CC[C@@](Nc2cccc(Cl)c2)(C(=O)O)CC3)c(Cl)c1 (stereo partly drawn) [Example 429, (1r,4r)-2′-[3-(4-amino-2,6-dichlorophenoxy)propyl]-4-(3-chloroanilino)-2′,3′-dihydrospiro[cyclohexane-1,1′-indene]-4-carboxylic acid] as the compound, how does the Ki read?
A: The Ki was 165 nM.

Q: Cc1ccccc1C1Cc2ccccc2C12CCC(Nc1cccc(Br)c1)(C(=O)O)CC2 (stereo not drawn) [Example 214, 4-(3-bromoanilino)-2′-(2-methylphenyl)-2′,3′-dihydrospiro[cyclohexane-1,1′-indene]-4-carboxylic acid] was tested. Which Ki did it give?
A: Its Ki is 7900 nM.

Q: With CC1N(C=O)c2ccccc2[C@]12CC[C@](Nc1cccc(Br)c1)(C(=O)O)CC2 (stereo partly drawn) [Example 26, (1r,4r)-4-(3-bromoanilino)-1′-formyl-2′-methyl-1′,2′-dihydrospiro[cyclohexane-1,3′-indole]-4-carboxylic acid] as the compound, how does the Ki read?
A: The Ki was 42800 nM.

Q: Which Ki does the source give for O=C(O)[C@]1(Nc2cccc(Cl)c2)CC[C@]2(CC1)C(=C1CCCC1)Cc1ccccc12 [Example 93, (1r,4r)-4-(3-chloroanilino)-2′-cyclopentylidene-2′,3′-dihydrospiro[cyclohexane-1,1′-indene]-4-carboxylic acid] here?
A: Its Ki is 7310 nM.

Q: For COc1cccc(C2Cc3ccccc3[C@]23CC[C@@](Nc2cccc(Cl)c2)(C(=O)O)CC3)c1C (single isomer, unassigned) [Example 321, (1r,4r)-4-(3-chloroanilino)-2′-(3-methoxy-2-methylphenyl)-2′,3′-dihydrospiro[cyclohexane-1,1′-indene]-4-carboxylic acid], which Ki is on record?
A: The Ki was 2940 nM.

Q: CC1(C)CCC=C1C1=Cc2ccccc2[C@]12CC[C@@](Nc1cccc(Cl)c1)(C(=O)O)CC2 [Example 278, (1s,4s)-4-(3-chloroanilino)-2′-(5,5-dimethylcyclopent-1-en-1-yl)spiro[cyclohexane-1,1′-indene]-4-carboxylic acid] was tested. Which Ki did it give?
A: Its Ki is 11800 nM.

Q: Which Ki does the source give for O=C(O)[C@]1(Nc2cccc(Cl)c2)CC[C@]2(CC1)C(c1ccc3occc3c1)=Cc1ccccc12 [Example 247, (1s,4s)-2′-(1-benzofuran-5-yl)-4-(3-chloroanilino)spiro[cyclohexane-1,1′-indene]-4-carboxylic acid] here?
A: Its Ki is 1220 nM.

Q: O=C(O)[C@]1(Nc2cccc(Cl)c2)CC[C@@]2(CC1)c1ccccc1CC2CCCOc1ccccc1 (stereo partly drawn) [Example 424, (1r,4r)-4-(3-chloroanilino)-2′-(3-phenoxypropyl)-2′,3′-dihydrospiro[cyclohexane-1,1′-indene]-4-carboxylic acid] was tested. Which Ki did it give?
A: Its Ki is 184 nM.

Q: Which Ki does the source give for O=C(O)[C@]1(Nc2cccc(Cl)c2)CC[C@]2(CC1)C(c1cccc(OCC3CC3)c1)=Cc1ccccc12 [Example 339, (1s,4s)-4-(3-chloroanilino)-2′-[3-(cyclopropylmethoxy)phenyl]spiro[cyclohexane-1,1′-indene]-4-carboxylic acid] here?
A: Its Ki is 154 nM.

Q: For COc1ccc(C)c(C2Cc3ccccc3[C@]23CC[C@@](Nc2cccc(Cl)c2)(C(=O)O)CC3)c1 (single isomer, unassigned) [Example 270, (1r,4r)-4-(3-chloroanilino)-2′-(5-methoxy-2-methylphenyl)-2′,3′-dihydrospiro[cyclohexane-1,1′-indene]-4-carboxylic acid], which Ki is on record?
A: Its Ki is 3960 nM.

Q: Which Ki does the source give for O=C(O)C1(Nc2cccc(Cl)c2)CCC2(CC1)c1ccccc1-c1ccccc12 [Example 118, 4-(3-chloroanilino)spiro[cyclohexane-1,9′-fluorene]-4-carboxylic acid] here?
A: Its Ki is 3990 nM.

Q: Which Ki does the source give for Cc1ccc(C)c2c1CC(C)C21CCC(Nc2cccc(Br)c2)(C(=O)O)CC1 (stereo not drawn) [Example 123, 4-(3-bromoanilino)-2′,4′,7′-trimethyl-2′,3′-dihydrospiro[cyclohexane-1,1′-indene]-4-carboxylic acid] here?
A: The Ki was 6400 nM.

Q: Which Ki does the source give for CN(Cc1ccccc1)C(=O)C1=Cc2ccccc2[C@]12CC[C@@](Nc1cccc(Cl)c1)(C(=O)O)CC2 [Example 181, (1s,4s)-2′-[benzyl(methyl)carbamoyl]-4-(3-chloroanilino)spiro[cyclohexane-1,1′-indene]-4-carboxylic acid] here?
A: The Ki was 11400 nM.

Q: How did the Ki turn out when O=C(O)[C@]1(Nc2cccc(Cl)c2)CC[C@@]2(C=Cc3ccccc32)CC1 [Example 64, (1r,4r)-4-(3-chloroanilino)spiro[cyclohexane-1,1′-indene]-4-carboxylic acid] was run?
A: Its Ki is 735 nM.

Reference: US20240150293A1, “SPIROCYCLOHEXANE DERIVATIVES, PHARMACEUTICAL COMPOSITIONS CONTAINING THEM AND THEIR USES AS ANTI-APOPTOTIC INHIBITORS” (LES LABORATOIRES SERVIER, priority 2021, published 2024)
